Reference: patent publication US7226748B2, “HSC70 directed diagnostics and therapeutics for multidrug resistant neoplastic disease” (priority 2003, dated 2007)

Legend:
[1] = tested on: antigen-positive E3 cell line; conditions: read-out: IC50 (cytotoxicities); cited from earlier work
[2] = tested on: E3 target cells; conditions: read-out: IC50 (selective cytotoxicity); cited from earlier work
[3] = tested on: lysosomal hydrolases; conditions: cited from earlier work
[4] = tested on: hematological tumor cells; test: HSC70 vaccine protection against hematological tumor cells in mice; type: in vivo; conditions: mice vaccinated prior to injection of tumor cells versus not vaccinated

Compound: O=c1[nH]c(=O)n([C@H]2C[C@H](O)[C@@H](CO)O2)cc1F [FUDR, 5-fluoro-2′-deoxyuridine]
- IC50 [1]: 0.4 nM

Compound: CC(=O)[C@]1(O)Cc2c(O)c3c(c(O)c2[C@@H](O[C@H]2C[C@H](N)[C@H](O)[C@H](C)O2)C1)C(=O)c1ccccc1C3=O [Ida, Idarubicin]
- IC50 [2]: 120 nM

Compound: Ala-Leu-Dau [Ala-Leu-Dau derivative]
- time for conversion back to the free drug by lysosomal hydrolases [3]: 2 h

Compound: HSC70: purified full length murine HSC70 protein used as vaccine antigen, may be administered with an adjuvant
- tumor size [4]: smaller
